Assays:
[1] = biological target: Tyrosine-protein kinase Lyn (Homo sapiens) (UniProt P07948); details: Compound concentration 1.0 uM
[2] = biological target: Angiotensin-converting enzyme (Oryctolagus cuniculus) (UniProt P12822); details: Compound concentration 10.0 uM
[3] = biological target: Adenosine receptor A1 (Homo sapiens) (UniProt P30542); assay: A1/HU Eurofins SafetyScreen44 (BI); details: Compound concentration 100.0 uM
[4] = biological target: Serine/threonine-protein kinase NLK (Homo sapiens) (UniProt Q9UBE8); details: Compound concentration 1.0 uM
[5] = biological target: Neutrophil elastase (Homo sapiens) (UniProt P08246); details: Compound concentration 10.0 uM
[6] = biological target: Ephrin type-B receptor 2 (Homo sapiens) (UniProt P29323); details: Compound concentration 1.0 uM
[7] = biological target: Serine/threonine-protein kinase tousled-like 1 (Homo sapiens) (UniProt Q9UKI8); details: Compound concentration 1.0 uM
[8] = biological target: Tyrosine-protein kinase Fyn (Homo sapiens) (UniProt P06241); details: Compound concentration 1.0 uM
[9] = biological target: Myosin light chain kinase family member 4 (Homo sapiens) (UniProt Q86YV6); assay: MYLK4 Invitrogen Lab (UK) kinase screen (BI); details: Compound concentration 1.0 uM
[10] = biological target: Activin receptor type-1 (Homo sapiens) (UniProt Q04771); assay: ACVR1 Invitrogen Lab (UK) kinase screen (BI); details: Compound concentration 1.0 uM
[11] = biological target: Sigma intracellular receptor 2 (Homo sapiens) (UniProt Q5BJF2); details: Compound concentration 10.0 uM
[12] = biological target: MAP kinase-activated protein kinase 3 (Homo sapiens) (UniProt Q16644); assay: MAPKAP-K3 DUNDEE kinase screen (BI); details: Compound concentration 10.0 uM
[13] = biological target: Phosphatidylinositol 4-phosphate 3-kinase C2 domain-containing subunit alpha (Homo sapiens) (UniProt O00443); details: Compound concentration 1.0 uM
[14] = biological target: AMP-activated protein kinase alpha-2/beta-1/gamma-3 (Homo sapiens) (UniProt P54646+Q9Y478+Q9UGI9); details: Compound concentration 1.0 uM
[15] = biological target: Urotensin-2 receptor (Homo sapiens) (UniProt Q9UKP6); assay: UROTENSIN_II Eurofins SafetyScreen44 (BI); details: Compound concentration 10.0 uM
[16] = biological target: Mitogen-activated protein kinase 14 (Homo sapiens) (UniProt Q16539); details: Compound concentration 1.0 uM
[17] = biological target: Serine/threonine-protein kinase 25 (Homo sapiens) (UniProt O00506); details: Compound concentration 1.0 uM
Renin (Homo sapiens) = Renin (Homo sapiens) (UniProt P00797); details: Compound concentration 10.0 uM
[18] = biological target: Tyrosine-protein kinase BTK (Homo sapiens) (UniProt Q06187)
Tyrosine-protein kinase BTK (Homo sapiens), sequence (Q06187 whole entry): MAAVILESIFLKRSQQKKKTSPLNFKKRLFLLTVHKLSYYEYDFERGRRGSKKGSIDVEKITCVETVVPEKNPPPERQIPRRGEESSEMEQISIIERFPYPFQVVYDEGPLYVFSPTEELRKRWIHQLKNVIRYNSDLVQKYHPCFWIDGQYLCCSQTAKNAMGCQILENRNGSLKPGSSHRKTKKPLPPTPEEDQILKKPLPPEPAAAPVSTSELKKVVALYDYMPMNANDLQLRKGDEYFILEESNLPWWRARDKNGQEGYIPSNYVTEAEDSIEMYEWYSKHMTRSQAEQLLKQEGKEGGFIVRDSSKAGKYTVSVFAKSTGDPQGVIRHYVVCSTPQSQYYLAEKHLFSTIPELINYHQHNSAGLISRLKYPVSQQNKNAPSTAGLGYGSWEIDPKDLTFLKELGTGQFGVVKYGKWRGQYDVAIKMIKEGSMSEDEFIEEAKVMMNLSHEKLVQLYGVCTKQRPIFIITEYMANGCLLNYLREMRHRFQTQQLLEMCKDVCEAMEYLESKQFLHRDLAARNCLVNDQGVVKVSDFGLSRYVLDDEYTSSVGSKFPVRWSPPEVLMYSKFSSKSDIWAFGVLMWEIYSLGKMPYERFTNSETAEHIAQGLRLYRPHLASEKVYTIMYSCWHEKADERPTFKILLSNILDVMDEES

Adenosine receptor A1 (Homo sapiens), sequence (P30542 whole entry): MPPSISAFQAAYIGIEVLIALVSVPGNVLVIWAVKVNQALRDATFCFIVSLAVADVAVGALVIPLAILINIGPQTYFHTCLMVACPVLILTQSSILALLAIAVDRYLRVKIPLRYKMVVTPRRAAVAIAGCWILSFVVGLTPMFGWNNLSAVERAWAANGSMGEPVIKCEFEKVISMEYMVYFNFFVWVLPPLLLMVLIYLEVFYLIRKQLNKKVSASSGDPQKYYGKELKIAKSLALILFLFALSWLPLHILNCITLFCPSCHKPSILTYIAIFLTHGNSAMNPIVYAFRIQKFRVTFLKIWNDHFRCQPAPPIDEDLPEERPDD
Phosphatidylinositol 4-phosphate 3-kinase C2 domain-containing subunit alpha (Homo sapiens), sequence (O00443 whole entry, the tested form may be a part): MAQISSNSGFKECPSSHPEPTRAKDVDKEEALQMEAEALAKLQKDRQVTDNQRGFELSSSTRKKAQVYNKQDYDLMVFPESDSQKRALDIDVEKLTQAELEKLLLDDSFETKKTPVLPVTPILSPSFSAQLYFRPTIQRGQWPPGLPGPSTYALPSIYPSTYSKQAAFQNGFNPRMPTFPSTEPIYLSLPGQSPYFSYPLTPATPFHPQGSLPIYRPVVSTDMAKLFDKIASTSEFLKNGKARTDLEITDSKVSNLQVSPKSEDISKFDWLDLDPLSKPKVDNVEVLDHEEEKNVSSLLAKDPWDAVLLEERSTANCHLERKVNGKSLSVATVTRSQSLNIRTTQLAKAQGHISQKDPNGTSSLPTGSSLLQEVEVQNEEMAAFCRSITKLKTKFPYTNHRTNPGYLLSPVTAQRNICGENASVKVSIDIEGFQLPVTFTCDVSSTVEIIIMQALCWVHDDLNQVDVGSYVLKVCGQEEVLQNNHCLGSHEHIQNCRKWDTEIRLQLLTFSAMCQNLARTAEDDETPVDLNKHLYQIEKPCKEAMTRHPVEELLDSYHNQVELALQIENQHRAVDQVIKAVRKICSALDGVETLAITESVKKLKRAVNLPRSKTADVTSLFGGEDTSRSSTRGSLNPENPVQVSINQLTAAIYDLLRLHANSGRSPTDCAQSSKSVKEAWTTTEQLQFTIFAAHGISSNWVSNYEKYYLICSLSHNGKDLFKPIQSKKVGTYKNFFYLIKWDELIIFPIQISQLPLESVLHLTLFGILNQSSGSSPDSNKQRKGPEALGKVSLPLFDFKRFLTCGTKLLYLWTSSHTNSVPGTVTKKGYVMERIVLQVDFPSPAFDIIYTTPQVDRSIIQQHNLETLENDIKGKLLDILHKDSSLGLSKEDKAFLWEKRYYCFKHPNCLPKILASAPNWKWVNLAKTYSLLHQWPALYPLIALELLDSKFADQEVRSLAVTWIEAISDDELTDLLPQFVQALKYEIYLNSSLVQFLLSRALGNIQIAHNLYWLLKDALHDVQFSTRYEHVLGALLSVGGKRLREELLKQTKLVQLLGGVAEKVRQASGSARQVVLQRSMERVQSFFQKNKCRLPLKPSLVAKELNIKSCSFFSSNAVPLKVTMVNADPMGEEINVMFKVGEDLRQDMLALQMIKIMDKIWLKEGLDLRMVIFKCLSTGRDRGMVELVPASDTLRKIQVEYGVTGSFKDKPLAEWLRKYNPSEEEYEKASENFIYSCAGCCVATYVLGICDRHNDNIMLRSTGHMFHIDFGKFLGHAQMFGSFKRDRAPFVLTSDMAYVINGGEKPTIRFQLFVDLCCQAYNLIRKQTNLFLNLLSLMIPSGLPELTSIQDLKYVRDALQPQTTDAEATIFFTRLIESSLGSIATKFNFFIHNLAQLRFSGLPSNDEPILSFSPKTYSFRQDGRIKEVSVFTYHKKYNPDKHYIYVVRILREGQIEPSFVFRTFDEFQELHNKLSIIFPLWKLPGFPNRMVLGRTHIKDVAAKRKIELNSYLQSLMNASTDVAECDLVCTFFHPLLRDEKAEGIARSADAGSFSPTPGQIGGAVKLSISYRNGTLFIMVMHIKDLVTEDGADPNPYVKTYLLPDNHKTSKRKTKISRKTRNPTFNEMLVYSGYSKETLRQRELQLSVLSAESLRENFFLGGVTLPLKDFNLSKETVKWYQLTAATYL
Activin receptor type-1 (Homo sapiens), sequence (Q04771 whole entry): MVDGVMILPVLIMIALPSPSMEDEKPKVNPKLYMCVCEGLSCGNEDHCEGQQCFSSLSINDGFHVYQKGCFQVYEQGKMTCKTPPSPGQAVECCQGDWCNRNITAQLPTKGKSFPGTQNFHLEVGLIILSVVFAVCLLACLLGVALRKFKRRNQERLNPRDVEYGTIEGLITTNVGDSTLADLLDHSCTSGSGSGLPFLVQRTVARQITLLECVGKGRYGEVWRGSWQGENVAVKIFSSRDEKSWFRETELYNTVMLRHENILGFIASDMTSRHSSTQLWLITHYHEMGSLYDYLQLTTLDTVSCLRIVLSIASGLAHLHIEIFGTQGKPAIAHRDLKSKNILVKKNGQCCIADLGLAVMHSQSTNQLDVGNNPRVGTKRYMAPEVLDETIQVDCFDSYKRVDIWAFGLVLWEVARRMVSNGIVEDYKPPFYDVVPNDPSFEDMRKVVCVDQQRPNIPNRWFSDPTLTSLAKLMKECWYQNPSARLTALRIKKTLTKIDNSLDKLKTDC
AMP-activated protein kinase alpha-2/beta-1/gamma-3 (Homo sapiens), sequence (P54646 whole entry): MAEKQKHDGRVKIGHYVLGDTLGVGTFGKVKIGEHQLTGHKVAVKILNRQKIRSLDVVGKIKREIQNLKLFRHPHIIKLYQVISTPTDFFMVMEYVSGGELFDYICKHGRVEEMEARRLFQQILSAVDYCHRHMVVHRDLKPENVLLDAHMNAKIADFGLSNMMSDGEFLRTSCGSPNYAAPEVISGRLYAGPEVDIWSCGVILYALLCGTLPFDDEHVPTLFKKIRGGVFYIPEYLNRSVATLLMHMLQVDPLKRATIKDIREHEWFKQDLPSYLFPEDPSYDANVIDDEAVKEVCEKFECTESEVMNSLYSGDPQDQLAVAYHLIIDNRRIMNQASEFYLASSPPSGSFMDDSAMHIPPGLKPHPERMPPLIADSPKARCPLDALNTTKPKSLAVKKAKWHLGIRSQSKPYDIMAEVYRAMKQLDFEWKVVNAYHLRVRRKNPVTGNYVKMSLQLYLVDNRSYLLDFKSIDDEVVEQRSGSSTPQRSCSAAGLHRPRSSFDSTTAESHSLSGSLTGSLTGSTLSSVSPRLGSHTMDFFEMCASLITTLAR
AMP-activated protein kinase alpha-2/beta-1/gamma-3 (Homo sapiens), sequence (Q9UGI9 whole entry partner): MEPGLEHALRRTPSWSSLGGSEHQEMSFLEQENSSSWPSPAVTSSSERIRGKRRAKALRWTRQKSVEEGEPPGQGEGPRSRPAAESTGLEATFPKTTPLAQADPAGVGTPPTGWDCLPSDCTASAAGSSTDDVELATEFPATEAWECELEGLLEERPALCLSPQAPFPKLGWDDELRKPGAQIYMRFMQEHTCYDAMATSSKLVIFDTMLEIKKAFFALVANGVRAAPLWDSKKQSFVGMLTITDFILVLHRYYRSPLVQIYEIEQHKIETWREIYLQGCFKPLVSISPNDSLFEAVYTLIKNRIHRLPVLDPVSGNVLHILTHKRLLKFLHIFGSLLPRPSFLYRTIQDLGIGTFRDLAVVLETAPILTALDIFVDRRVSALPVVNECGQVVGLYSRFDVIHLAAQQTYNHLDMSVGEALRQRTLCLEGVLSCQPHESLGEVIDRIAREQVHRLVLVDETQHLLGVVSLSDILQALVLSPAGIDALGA
AMP-activated protein kinase alpha-2/beta-1/gamma-3 (Homo sapiens), sequence (Q9Y478 2-270 partner limits assumed): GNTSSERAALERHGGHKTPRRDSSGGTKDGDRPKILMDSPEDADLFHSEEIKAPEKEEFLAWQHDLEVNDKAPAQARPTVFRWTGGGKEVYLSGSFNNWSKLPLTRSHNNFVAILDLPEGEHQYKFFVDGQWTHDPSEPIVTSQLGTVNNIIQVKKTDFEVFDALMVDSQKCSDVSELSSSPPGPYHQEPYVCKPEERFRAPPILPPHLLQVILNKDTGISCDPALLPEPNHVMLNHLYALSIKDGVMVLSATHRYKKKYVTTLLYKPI
Serine/threonine-protein kinase 25 (Homo sapiens), sequence (O00506 whole entry, looked up): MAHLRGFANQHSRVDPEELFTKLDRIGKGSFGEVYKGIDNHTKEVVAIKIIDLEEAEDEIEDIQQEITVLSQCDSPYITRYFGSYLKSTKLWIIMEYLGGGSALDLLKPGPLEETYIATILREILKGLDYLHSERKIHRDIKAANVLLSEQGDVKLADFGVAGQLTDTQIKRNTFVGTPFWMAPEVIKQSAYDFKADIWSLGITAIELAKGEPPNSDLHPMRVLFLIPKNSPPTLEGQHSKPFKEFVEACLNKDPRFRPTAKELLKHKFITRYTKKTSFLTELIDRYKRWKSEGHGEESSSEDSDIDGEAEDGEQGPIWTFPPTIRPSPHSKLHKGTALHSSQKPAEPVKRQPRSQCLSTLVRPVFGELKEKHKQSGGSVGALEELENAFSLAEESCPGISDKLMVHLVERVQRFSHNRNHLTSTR

CCC(F)(F)c1cc(N2CCC(S(C)(=O)=O)CC2)nc2sc(C(N)=O)c(N)c12 [BI-605906]
inactive: residual activity [1] 82% | residual activity [2] 98% | residual activity [3] 77% | residual activity [4] 93% | residual activity [5] 98% | residual activity [6] 89% | residual activity [7] 91% | residual activity [8] 89% | residual activity [9] 83% | residual activity [10] 79% | inhibition [11] 34.5% | residual activity [12] 90.2% | residual activity [13] 97% | residual activity [14] 89% | residual activity [15] 107% | residual activity [16] 89% | residual activity [17] 100% | residual activity (Renin (Homo sapiens)) 100% | residual activity ([18]; Compound concentration 1.0 uM) 85% | residual activity ([18]; Compound concentration 10.0 uM) 96%

Source: ChEMBL document CHEMBL4800722, “Data for DCP probe BI 605906” (2021)
